Laboratory results as given in US20040097598A1 (priority 2001, published 2004).
Like-named read-outs stand apart in the source and are kept apart here.

Assays:
MES seizure = assay: maximal electroshock (MES) seizure test; type: in vivo, mice; settings: for TI (therapeutic index): ratio TD50 (rotorod)/ED50 (MES); for TI (therapeutic index) / anticonvulsant activity: mice; for anticonvulsant activity / LogED50: MES test; for anticonvulsant activity: intraperitoneal; for LogED50: best-fit value, C5 vs C7 comparison
Method: (§1) Male CF-1 mice, weighing 28-30 g, were used as subjects (Charles River Canada, La Prairie, Quebec, Canada). Three to five subjects per drug dose were used to prescreen each compound for anticonvulsant activity. Prescreening involved injecting subjects with the drug at doses of 3, 6 mmol/kg and assessing activity and toxicity 30 min later. Promising compounds progressed to dose-response studies, which employed at least 50 subjects, 10 subjects per dose.
(§2) Compounds were dissolved in oil and injected intraperitoneally.
Thirty minutes after drug injection, the MES seizure test was administered. We used the procedure of Krall et al. (1978). In brief, a seizure was induced using the electrical current applied via corneal electrodes. The current was set to 50 mA with a 60 Hz sine wave pulse configuration and train duration of 0.2 sec. Seizure protection was defined in this model as a failure to extend the hind limbs to an angle greater than 90 degrees during the tonic period of the convulsion.
Data analysis was performed using GraphPad Prizm software package version 3.02 for Windows (GraphPad Software Inc, San Diego, Calif., USA). Both dose-response and toxicity data were fitted using non-linear sigmoidal dose-response model with variable slope: Y=Bottom+(Top-Bottom)/(1+10^((LogED50—X)*HillSlope)), where Bottom, Top, HillSlope and ED50 were the fitting parameters, X was the logarithm of drug concentration, and Y was the response parameter. ED50 and TD50, which are the concentrations that give a response in 50% subjects in seizure and toxicity tests, were determined as best-fit values. Therapeutic index (TI) was calculated as a ratio of TD50/ED50.

[1] = system: neurological deficit (rotorod); assay: rotorod toxicity test; type: in vivo; settings: dose giving rotorod failure in 50% subjects, about 25 min after intraperitoneal injection in oil, male CF-1 mice
Method: as §1, §2
The test was administered about 25 minutes after the injection. In brief, the diameter of a rotating rod was about 5 cm and the number of revolutions per minute was set at 6 rpm. Mice were placed on the rod so that it was rotated toward the animal. Animals that were not able to maintain their equilibrium on the rod for 1 min were again put on the rod a further two times.
Both dose-response and toxicity data were fitted using non-linear sigmoidal dose-response model with variable slope: Y=Bottom+(Top-Bottom)/(1+10^((LogED50—X)*HillSlope)), where Bottom, Top, HillSlope and ED50 were the fitting parameters, X was the logarithm of drug concentration, and Y was the response parameter. […] Therapeutic index (TI) was calculated as a ratio of TD50/ED50.

[2] = biological target: nicotinic acetylcholine receptors; settings: inhibition of acetylcholine ion channel, Alifimoff et al. (1993); cited from earlier work
[3] = system: maximal electroshock seizures; assay: maximal electroshock seizures after intraperitoneal acetoacetate; type: in vivo; settings: 15-30 min after intraperitoneal injection, mice or rats
Source text: (§3) Experiments of Keith and Helmholz involving the thujone model of epileptic seizures seemed to support Wilder's hypothesis (Helmholz & Keith 1930, Keith 1931, 1932a,b). […] The Keith's results and conclusions about anticonvulsant activity of acetoacetate are debatable. […] At the same time, acetoacetate easily decomposes to form acetone.

[4] = system: pentylenetetrazole seizures; assay: pentylenetetrazole seizures after intraperitoneal acetoacetate; type: in vivo; settings: 15-30 min after intraperitoneal injection, mice or rats
Source text: as §3

[5] = system: thujone model of epileptic seizures; settings: cited from earlier work
[6] = system: convulsions induced by isonicotinic acid; settings: pretreatment, rats; cited from earlier work
[7] = system: amygdala-kindled seizures; assay: amygdala-kindling model, acetone (FIG. 3)
Source text: (§4) The amygdala-kindled focus is a model of complex partial seizures in humans (Albright & Burnham 1980). These are notoriously drug resistant.
(§5) The AY-9944-induced seizures were quantified by measurement of the onset-to-offset durations of the slow spike-and-wave discharge (SWD) combined over the 20-min intervals. In the AY-9944 model, average ‘% SWD decrease’ was the response parameter.
(§6) Compounds may be examined for their efficacy as anticonvulsants using a number of different animal models, including the maximal electroshock (MES) model (human analog: tonic-clonic seizures) as described in Krall et al. (1978) and in Example 1 herein, the threshold pentylenetetrazole (PTZ) model (human analog: absence seizures) as described in Krall et al. (1978), the amygdala-kindling model (human analog: complex partial seizures with secondary generalization) as described in Albright & Burnham (1980), and the AY-9944 model (human analog, a typical absence, a component of the Lennox-Gastaut syndrome) as described in Cortez et al. (2001). The compounds may also be tested for their toxicity using standard assays, such as the standard rotorod assay as described in Dunham & Miya (1957) and Wlaz & Loscher (1998) and in Example 1 herein.

AY-9944-induced seizures = assay: AY-9944 model, acetone (FIG. 3); type: in vivo
Source text: as §4, §5, §6

[8] = system: maximal electroshock (MES) model; assay: maximal electroshock (MES) model, acetone (FIG. 3); type: in vivo
Source text: as §4, §5, §6

[9] = system: convulsions induced by electroshock; settings: pretreatment, rats; cited from earlier work
[10] = system: electrically evoked seizure; settings: exposed for 4 h to air containing acetone vapors; cited from earlier work
seizures = assay: anticonvulsant action of the ketone bodies; settings: in vivo
Source text: The present inventors have studied the mechanism of action of the ketogenic diet in a series of animal experiments.

[11] = system: semicarbizide-induced convulsions; settings: given orally to mice; cited from earlier work
[12] = system: threshold pentylenetetrazole (PTZ) model; assay: threshold pentylenetetrazole (PTZ) model, acetone (FIG. 3); type: in vivo
Source text: as §4, §5, §6

[13] = dose giving seizure protection in 50% subjects, MES test 30 min after intraperitoneal injection in oil, male CF-1 mice
[14] = Mus musculus, ip, 0.5 h, dose giving seizure protection in 50% subjects, MES test 30 min after intraperitoneal injection in oil, male CF-1 mice, read-out: ED50
[15] = mouse, in vivo, ip, read-out: TD50
[16] = given chronically for 28 days, rats

Row | Compound | TI (therapeutic index) (MES seizure) | ED50 (MES seizure; [14]) | TD50 [1, 15] | further results
1 | 2-Butanone | 1.7 | – | – | ED50 (MES seizure; [13]): 5800 µmol/kg; TD50 [1]: 10000 µmol/kg
2 | CC(O)CCCO (centres unmarked) [1,4-Pentanediol] | – | – | – | anticonvulsant activity (MES seizure): absence of anticonvulsant activity
3 | CCCCCCCCC(C)O (centres unmarked) [2-Decanol] | Not Active | – | – | ED50 (MES seizure; [13]): Not Active; TD50 [1]: Not Active
4 | CCCCCCCCC(C)=O [2-Decanone] | Not Active | – | – | ED50 (MES seizure; [13]): Not Active; TD50 [1]: Not Actuve
5 | CCCCCC(C)O (centres unmarked) [2-Heptanol] | 3.9 | 1300 µmol/kg | 5100 µmol/kg | LogED50 (MES seizure): LogED50 = 0.1197
6 | CCCCCC(C)=O [2-Heptanone] | 2.2 | 2800 µmol/kg | 6000 µmol/kg | LogED50 (MES seizure): LogED50 = 0.4447
7 | CCCCC(C)=O [2-Hexanone] | 1.8 | – | 4400 µmol/kg | ED50 (MES seizure; Mus musculus, ip, 0.5 h): 2400 µmol/kg
8 | CCCCCCCC(C)O (centres unmarked) [2-Nonanol] | 4.3 | 1200 µmol/kg | 5000 µmol/kg | –
9 | CCCCCCCC(C)=O [2-Nonanone] | 9.4 | 1700 µmol/kg | 15900 µmol/kg | –
10 | CCCCCCC(C)O (centres unmarked) [2-Octanol] | 1.9 | 2000 µmol/kg | 3900 µmol/kg | –
11 | CCCCCCC(C)=O [2-Octanone] | 1.8 | 3400 µmol/kg | 6000 µmol/kg | –
12 | CCCC(C)O (centres unmarked) [2-Pentanol] | 3.7 | 1600 µmol/kg | 5700 µmol/kg | LogED50 (MES seizure): LogED50 = 0.2331
13 | CCCC(C)=O [2-Pentanone] | 2.2 | – | 7200 µmol/kg | LogED50 (MES seizure): LogED50 = 0.5176; ED50 (MES seizure; Mus musculus, ip, 0.5 h): 3300 µmol/kg
14 | CCCCCCCCCC(C)=O [2-Undecanone] | Not Active | – | – | ED50 (MES seizure; [13]): Not Active; TD50 [1]: Not Active
15 | CCC(C)O (centres unmarked) [2-butanol] | – | – | – | IC50 [2]: 60 to 70 mM
16 | CCCCCCC(=O)CC [3-Nonanone] | 2.2 | 9600 µmol/kg | 20900 µmol/kg | –
17 | CCC(=O)CC [3-Pentanone] | 2.3 | 3300 µmol/kg | 7600 µmol/kg | LogED50 (MES seizure): LogED50 = 0.5124

Row | Compound | TI (therapeutic index) (MES seizure) | ED50 (MES seizure; [14]) | TD50 [1, 15] | further results
18 | CCCC(=O)CCC [4-Heptanone] | 2.4 | 2000 µmol/kg | 4700 µmol/kg | LogED50 (MES seizure): LogED50 = 0.2981
19 | CCCCCC(=O)CCC [4-Nonanone] | 3.3 | 5000 µmol/kg | 16300 µmol/kg | –
20 | CCCCC(=O)CCCC [5-Nonanone] | 3.6 | 3600 µmol/kg | 13200 µmol/kg | –
21 | CCCCCC(=O)CCCCC [6-Undecanone] | Not Active | – | – | ED50 (MES seizure; [13]): Not Active; TD50 [1]: Not Active
22 | CC(=O)CC(=O)O [Acetoacetate] | – | – | – | effect against maximal electroshock seizures [3]: not effective; effect against pentylenetetrazole seizures [4]: not effective
23 | CC(O)CC(=O)O (stereo not drawn) [Beta-hydroxybutyrate, beta-hydroxybutyrate] | – | – | – | anticonvulsant effect [5]: not anticonvulsant
24 | CCCCOC(C)=O [Butyl acetate] | – | – | – | anticonvulsant activity (MES seizure): Series V - Inactive analogues
25 | CC(=O)CC(C)(C)O [Diacetone] | – | – | – | anticonvulsant activity (MES seizure; listed as diacetone alcohol): absence of anticonvulsant activity
26 | CCOC(=O)CC(C)=O [Ethyl acetoacetate] | – | – | – | anticonvulsant activity (MES seizure): absence of anticonvulsant activity
27 | CCCCCC=O [Hexanal] | – | – | – | anticonvulsant activity (MES seizure): inactive as anticonvulsants
28 | COCC(C)=O [Methoxyacetone] | – | – | – | anticonvulsant activity (MES seizure): absence of anticonvulsant activity
29 | CCCCCCCCC=O [Nonanal] | – | – | – | anticonvulsant activity (MES seizure): inactive as anticonvulsants
30 | CCCCCCCCC [Nonane] | – | – | – | anticonvulsant activity (MES seizure): inactive as anticonvulsant
31 | CC(=O)CC(=O)O [acetoacetic acid] | – | – | – | anticonvulsant effect [5]: most marked anticonvulsant effects
32 | CC(=O)CC(=O)[O-].[Na+] [sodium acetoacetate] | – | – | – | anticonvulsant effect [5]: most marked anticonvulsant effects
33 | CCCC(CCC)C(=O)O [valproate] | 2.7 | 1400 µmol/kg | 3800 µmol/kg | –
34 | Acetone | – | – | – | protection against clonic-tonic convulsions [6]: protected; seizure suppression ([7]; amygdala-kindling model): suppresses seizures; development of kindled seizures [7, 16]: significantly delayed; tolerability [7, 16]: well tolerated; effect against the kindled amygdala focus ([7]; sub-toxic doses): effective; seizure suppression (AY-9944-induced seizures): suppresses seizures; ED50 (MES seizure; [13]): 16200 µmol/kg; ED50 (MES seizure; dose giving seizure protection in 50% subjects, MES test 30 min after intraperitoneal injection in oil, male CF-1 mice, listed as acetone): 16000 µmol/kg; seizure suppression [8]: suppresses seizures; TD50 [1]: 35200 µmol/kg; protection against clonic-tonic convulsions [9]: protected; rats in which electrically evoked seizure is inhibited [10]: 50%; anticonvulsant (seizures): anticonvulsant; semicarbizide-induced convulsions and mortality [11]: reduce; seizure suppression [12]: suppresses seizures
